Measurements published in PubChem BioAssay (NCI).
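Compound exposure: 48 hours, 5 concentrations, 96-well plates. TGI is the concentration that stops growth completely.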

Experiments:
Assay in all cases: growth of human tumour cells (NCI), 48 h
[1] = system: 786-0 renal
[2] = system: CAKI-1 renal
[3] = system: HCT-15 colon
[4] = system: K-562 leukemia
[5] = system: M14 melanoma
[6] = system: MCF7 breast
[7] = system: MDA-MB-435
[8] = system: NCI-H23 lung
[9] = system: NCI-H460 lung
[10] = system: OVCAR-4 ovarian
[11] = system: OVCAR-8 ovarian
[12] = system: SF-268 CNS
[13] = system: SF-539 CNS
[14] = system: SK-MEL-2 melanoma
[15] = system: SK-MEL-28 melanoma
[16] = system: SR leukemia
[17] = system: T-47D breast
[18] = system: HS 578T breast
[19] = system: MDA-N

Compound | TGI [1] [µM] | TGI [2] [µM] | TGI [3] [µM] | TGI [4] [µM] | TGI [5] [µM] | TGI [6] [µM] | TGI [7] [µM] | TGI [8] [µM] | TGI [9] [µM] | TGI [10] [µM] | TGI [11] [µM] | TGI [12] [µM] | TGI [13] [µM] | TGI [14] [µM] | TGI [15] [µM] | TGI [16] [µM] | TGI [17] [µM] | TGI [18] [µM] | TGI [19] [µM]
O=C(O)CCC(NC(=O)c1ccc(OCc2nc3cc(C(F)(F)F)ccc3nc2-c2ccccc2)cc1)C(=O)O (stereo not given) | > 100 | > 100 | > 100 | > 100 | > 100 | > 100 | > 100 | > 100 | > 100 | > 100 | > 100 | > 100 | > 100 | > 100 | > 100 | > 100 | > 100 |  | 
S=c1nc2sc3c(c2c(Nc2ccc(Cl)cc2)[nH]1)CCCC3 | > 100 | > 100 | > 100 | > 100 |  | > 100 | > 100 | > 100 | > 100 | > 100 |  | > 100 |  | > 100 | > 100 | > 100 |  | > 100 | > 100
CC(=O)Nc1oc(C)c(C)c1S(=O)(=O)c1ccc(Cl)cc1 | > 100 |  | > 100 | > 100 | > 100 | > 100 | > 100 | > 100 | > 100 | > 100 | > 100 | > 100 | > 100 | 85.6 | > 100 | > 100 | > 100 | 93.6 | 
N#Cc1cccc2c1Sc1ccccc1N2 | 67.2 | > 100 | > 100 | > 100 | > 100 | > 100 | > 100 | > 100 | > 100 |  | > 100 | > 100 | 64.2 |  |  | > 100 | > 100 |  | 
CN(CC(=O)N1CC(CCl)c2ccc([N+](=O)[O-])cc21)CC(=O)N1CC(CCl)c2ccc([N+](=O)[O-])cc21 (stereo not given) | > 100 | > 100 | > 100 | > 100 | > 100 | > 100 | > 100 | > 100 | > 100 |  | > 100 | > 100 | > 100 | > 100 | > 100 |  |  | > 100 | > 100
CC1=CC(=O)[C@@H](O)[C@]2(C)[C@H]3[C@@]4(O)OC[C@]35[C@H]([C@@H](C)[C@H]4O)[C@@H](OC(=O)C(C)(C)CO)C(=O)O[C@@H]5C[C@@H]12 | 4.83 | 9.88 | 3.1 | > 100 | 0.446 | > 100 | 1.65 | 0.0869 | 0.547 | 1.9 | 2.52 | 0.236 | < 0.0261 | 0.559 | > 100 |  |  | 0.897 | 0.825
CC(=O)c1cccc(Nc2nc3ccccc3c3occc23)c1 | 40 | > 100 | > 100 | > 100 | > 100 | > 100 | > 100 | 50.8 | > 100 | 61.5 | 74.5 | 86.7 | 35.6 |  | > 100 | > 100 | > 100 |  | 
COc1cc2c(cc1OC)[C@@H]1[C@H](C#N)C(=O)C(C)(C)N1CC2 | > 100 | > 100 | > 100 | > 100 | > 100 | > 100 | > 100 | > 100 | > 100 | > 100 | > 100 |  |  |  | > 100 | > 100 |  | > 100 | > 100
COc1ccc(/C=c2/sc3n(c2=O)C(c2ccccc2)C2(O)CCCCC2N=3)cc1 (stereo not given) | > 12.5 | > 12.5 |  | > 12.5 | > 12.5 | > 12.5 | > 12.5 | > 12.5 | > 12.5 | > 12.5 | > 12.5 | > 12.5 |  | > 12.5 | > 12.5 | > 12.5 | > 12.5 |  | > 12.5
Cc1cccc2oc3c(CC(=O)O)cccc3c(=O)c12 | > 100 | > 100 | > 100 | > 100 | > 100 | > 100 | > 100 | > 100 | > 100 | > 100 | > 100 | > 100 | > 100 | 17.4 | > 100 | > 100 |  | > 100 | > 100
COc1ccc2c(c1)CC[C@@H]1[C@@H]2CC[C@]2(C)C(=O)/C(=C/c3ccc(N(C)C)cc3)C[C@@H]12 | 80.7 | 71.7 | > 100 |  | > 100 |  | > 100 | > 100 | > 100 | > 100 |  | 89.9 | > 100 | 84.6 |  |  | > 100 |  | 
Nc1ccccc1-c1noc(=O)[nH]1 | > 100 | > 100 | > 100 | > 100 | > 100 | > 100 | > 100 | > 100 |  | > 100 | > 100 | > 100 | > 100 | > 100 | > 100 | > 100 | > 100 | > 100 | 
Nn1c(CCCCCCCCc2nnc(COc3ccc(Cl)cc3Cl)n2N)nnc1COc1ccc(Cl)cc1Cl | > 100 | > 100 | > 100 | > 100 | > 100 | > 100 | > 100 | > 100 | > 100 | > 100 |  | > 100 |  | > 100 | > 100 |  |  |  | > 100
COc1cc(-c2ccc(Br)[nH]2)[nH]c1C=NCC(C)C | 3.27 | 7.64 | 3.15 | 14.2 | 4.28 | 2.47 | 4.54 | 4.14 | 7.92 | 12.8 | 6.28 | 9.1 | 5.84 | 3.07 | 7.67 |  |  | 5.26 | 
